Here are results for 4 compounds from paper PMC5564600 (Oncotarget, 2017).

What all share (assay): biochemical
What all share (assay type): binding

The target of assay [1] is T1, panel of 442 kinases (Homo sapiens, UniProt O14920).
T1 construct: purchased Ambit Biosciences (scanMAXX KINOMEscan)
T1 sequence (O14920 1-756): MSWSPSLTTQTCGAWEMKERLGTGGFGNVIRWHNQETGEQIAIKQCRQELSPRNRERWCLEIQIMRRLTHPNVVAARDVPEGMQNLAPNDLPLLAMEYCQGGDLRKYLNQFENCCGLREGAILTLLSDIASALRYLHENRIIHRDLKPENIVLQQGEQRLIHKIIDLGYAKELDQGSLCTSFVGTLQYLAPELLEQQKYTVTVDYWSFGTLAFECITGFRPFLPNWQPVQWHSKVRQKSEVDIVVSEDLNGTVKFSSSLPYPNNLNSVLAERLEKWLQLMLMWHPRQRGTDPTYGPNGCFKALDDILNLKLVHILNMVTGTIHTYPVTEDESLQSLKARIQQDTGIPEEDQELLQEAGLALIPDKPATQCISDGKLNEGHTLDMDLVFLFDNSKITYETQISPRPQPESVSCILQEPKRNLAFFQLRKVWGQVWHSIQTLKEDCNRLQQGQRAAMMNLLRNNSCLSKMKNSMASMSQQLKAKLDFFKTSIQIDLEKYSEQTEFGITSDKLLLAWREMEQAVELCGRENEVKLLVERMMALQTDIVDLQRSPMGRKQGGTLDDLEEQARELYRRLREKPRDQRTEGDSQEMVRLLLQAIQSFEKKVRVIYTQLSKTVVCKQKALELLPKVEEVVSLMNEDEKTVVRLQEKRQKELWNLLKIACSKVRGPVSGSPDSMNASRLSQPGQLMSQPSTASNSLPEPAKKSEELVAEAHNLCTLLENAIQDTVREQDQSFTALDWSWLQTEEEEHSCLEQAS
Particulars: kinase IKK-beta; for remaining activity at 1 µM: read-out: % of control at 1 µM.

Assay [2] addresses T2, panel of 442 kinases (Homo sapiens, UniProt O75676).
T2 construct: purchased Ambit Biosciences (scanMAXX KINOMEscan)

Assay [3] has as its target T3, panel of 442 kinases (Homo sapiens, UniProt O75716).
T3 construct: purchased Ambit Biosciences (scanMAXX KINOMEscan)
Particulars: kinase STK16; for remaining activity at 1 µM: read-out: STK16 (% of control at 1 µM).

Assay [4] concerns the target T4, panel of 442 kinases (Homo sapiens, UniProt P10721, L576P).
T4 construct: purchased Ambit Biosciences (scanMAXX KINOMEscan)
The settings on record: kinase KIT(L576P); for remaining activity at 1 µM: read-out: % of control at 1 µM.

Assay [5] addresses T5, panel of 442 kinases (Homo sapiens, UniProt P16591).
T5 construct: purchased Ambit Biosciences (scanMAXX KINOMEscan)
The settings on record: FER; for remaining activity at 1 µM: read-out: % of control at 1 µM.

Assay [6] deals with T6, panel of 442 kinases (Homo sapiens, UniProt P17948).
T6 construct: purchased Ambit Biosciences (scanMAXX KINOMEscan)
The settings on record: FLT1; for remaining activity at 1 µM: read-out: % of control at 1 µM.

The target in assay [7] is T7, panel of 442 kinases (Homo sapiens, UniProt P32298).
T7 construct: purchased Ambit Biosciences (scanMAXX KINOMEscan)
Particulars: kinase GRK4; for remaining activity at 1 µM: read-out: % of control at 1 µM.

Assay [8] concerns the target T8, panel of 442 kinases (Homo sapiens, UniProt P36507).
T8 construct: purchased Ambit Biosciences (scanMAXX KINOMEscan)
Particulars: kinase MEK2; for remaining activity at 1 µM: read-out: % of control at 1 µM.

Assay [9] concerns the target T9, panel of 442 kinases (Homo sapiens, UniProt P51451).
T9 construct: purchased Ambit Biosciences (scanMAXX KINOMEscan)
The settings on record: BLK; for remaining activity at 1 µM: read-out: % of control at 1 µM.

In assay [10] the target is T10, panel of 442 kinases (Homo sapiens, UniProt P51813).
T10 construct: purchased Ambit Biosciences (scanMAXX KINOMEscan)
T10 sequence (P51813 1-675): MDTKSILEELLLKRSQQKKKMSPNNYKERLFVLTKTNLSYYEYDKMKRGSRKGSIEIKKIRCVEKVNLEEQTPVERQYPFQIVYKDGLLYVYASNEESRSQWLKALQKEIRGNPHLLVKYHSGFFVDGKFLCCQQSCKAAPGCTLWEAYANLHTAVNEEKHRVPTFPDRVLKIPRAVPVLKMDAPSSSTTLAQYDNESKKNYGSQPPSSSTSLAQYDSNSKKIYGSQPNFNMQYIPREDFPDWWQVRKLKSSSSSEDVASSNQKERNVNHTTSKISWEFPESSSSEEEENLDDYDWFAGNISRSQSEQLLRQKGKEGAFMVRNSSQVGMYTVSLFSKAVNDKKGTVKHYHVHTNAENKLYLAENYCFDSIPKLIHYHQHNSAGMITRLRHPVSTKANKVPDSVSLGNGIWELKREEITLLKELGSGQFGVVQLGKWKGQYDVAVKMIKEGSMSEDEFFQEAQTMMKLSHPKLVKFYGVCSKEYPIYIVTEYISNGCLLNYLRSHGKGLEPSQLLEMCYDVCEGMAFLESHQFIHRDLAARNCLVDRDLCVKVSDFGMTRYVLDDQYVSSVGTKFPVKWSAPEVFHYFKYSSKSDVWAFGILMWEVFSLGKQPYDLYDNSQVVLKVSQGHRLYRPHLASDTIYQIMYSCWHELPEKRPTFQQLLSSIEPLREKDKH
The settings on record: BMX; for remaining activity at 1 µM: read-out: % of control at 1 µM.

Assay [11] has as its target T11, panel of 442 kinases (Homo sapiens, UniProt P53667).
T11 construct: purchased Ambit Biosciences (scanMAXX KINOMEscan)
The settings on record: kinase LIMK1; for remaining activity at 1 µM: read-out: % of control at 1 µM.

The target in assay [12] is T12, panel of 442 kinases (Homo sapiens, UniProt P68400).
T12 construct: purchased Ambit Biosciences (scanMAXX KINOMEscan)
Particulars: CSNK2A1; for remaining activity at 1 µM: read-out: % of control at 1 µM.

Assay [13] addresses T13, panel of 442 kinases (Homo sapiens, UniProt Q04912).
T13 construct: purchased Ambit Biosciences (scanMAXX KINOMEscan)
The settings on record: kinase MST1R; for remaining activity at 1 µM: read-out: % of control at 1 µM.

Assay [14] addresses T14, panel of 442 kinases (Homo sapiens, UniProt Q13557).
T14 construct: purchased Ambit Biosciences (scanMAXX KINOMEscan)
Particulars: CAMK2D; for remaining activity at 1 µM: read-out: % of control at 1 µM.

Assay [15] concerns the target T15, panel of 442 kinases (Homo sapiens, UniProt Q9UEW8).
T15 construct: purchased Ambit Biosciences (scanMAXX KINOMEscan)
The settings on record: kinase STK39; for remaining activity at 1 µM: read-out: STK39 (% of control at 1 µM).

Assay [16] addresses T16, panel of 442 kinases (Homo sapiens, UniProt Q9UM73).
T16 construct: purchased Ambit Biosciences (scanMAXX KINOMEscan)
Particulars: ALK; for remaining activity at 1 µM: read-out: % of control at 1 µM.

Where [17] appears, read: kinase RPS6KA4(Kin.Dom.1-N-terminal), read-out: RPS6KA4(Kin.Dom.1-N-terminal) (% of control at 1 µM).
Setting [18] is: kinase RPS6KA4(Kin.Dom.2-C-terminal), read-out: RPS6KA4(Kin.Dom.2-C-terminal) (% of control at 1 µM).
Where [19] appears, read: 10 µM, read-out: % of control at 10 µM.

Where two headings read alike, the source gives them in different places.

T7 sequence (P32298 whole entry): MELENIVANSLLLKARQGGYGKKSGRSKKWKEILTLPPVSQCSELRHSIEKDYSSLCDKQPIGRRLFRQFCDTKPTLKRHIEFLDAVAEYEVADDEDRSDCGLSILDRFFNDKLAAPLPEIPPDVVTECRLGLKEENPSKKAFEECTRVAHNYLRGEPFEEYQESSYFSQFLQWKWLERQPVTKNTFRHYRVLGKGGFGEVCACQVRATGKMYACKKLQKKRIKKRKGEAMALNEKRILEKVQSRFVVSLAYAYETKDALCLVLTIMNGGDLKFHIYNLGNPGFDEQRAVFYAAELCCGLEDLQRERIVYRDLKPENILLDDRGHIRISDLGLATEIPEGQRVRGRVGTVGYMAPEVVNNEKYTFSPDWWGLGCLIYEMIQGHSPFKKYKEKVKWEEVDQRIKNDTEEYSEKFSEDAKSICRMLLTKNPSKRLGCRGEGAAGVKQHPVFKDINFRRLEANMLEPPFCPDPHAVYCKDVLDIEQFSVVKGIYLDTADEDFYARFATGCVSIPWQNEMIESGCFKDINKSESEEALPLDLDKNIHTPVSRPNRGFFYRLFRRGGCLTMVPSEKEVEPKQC
T16 sequence (Q9UM73 19-1620): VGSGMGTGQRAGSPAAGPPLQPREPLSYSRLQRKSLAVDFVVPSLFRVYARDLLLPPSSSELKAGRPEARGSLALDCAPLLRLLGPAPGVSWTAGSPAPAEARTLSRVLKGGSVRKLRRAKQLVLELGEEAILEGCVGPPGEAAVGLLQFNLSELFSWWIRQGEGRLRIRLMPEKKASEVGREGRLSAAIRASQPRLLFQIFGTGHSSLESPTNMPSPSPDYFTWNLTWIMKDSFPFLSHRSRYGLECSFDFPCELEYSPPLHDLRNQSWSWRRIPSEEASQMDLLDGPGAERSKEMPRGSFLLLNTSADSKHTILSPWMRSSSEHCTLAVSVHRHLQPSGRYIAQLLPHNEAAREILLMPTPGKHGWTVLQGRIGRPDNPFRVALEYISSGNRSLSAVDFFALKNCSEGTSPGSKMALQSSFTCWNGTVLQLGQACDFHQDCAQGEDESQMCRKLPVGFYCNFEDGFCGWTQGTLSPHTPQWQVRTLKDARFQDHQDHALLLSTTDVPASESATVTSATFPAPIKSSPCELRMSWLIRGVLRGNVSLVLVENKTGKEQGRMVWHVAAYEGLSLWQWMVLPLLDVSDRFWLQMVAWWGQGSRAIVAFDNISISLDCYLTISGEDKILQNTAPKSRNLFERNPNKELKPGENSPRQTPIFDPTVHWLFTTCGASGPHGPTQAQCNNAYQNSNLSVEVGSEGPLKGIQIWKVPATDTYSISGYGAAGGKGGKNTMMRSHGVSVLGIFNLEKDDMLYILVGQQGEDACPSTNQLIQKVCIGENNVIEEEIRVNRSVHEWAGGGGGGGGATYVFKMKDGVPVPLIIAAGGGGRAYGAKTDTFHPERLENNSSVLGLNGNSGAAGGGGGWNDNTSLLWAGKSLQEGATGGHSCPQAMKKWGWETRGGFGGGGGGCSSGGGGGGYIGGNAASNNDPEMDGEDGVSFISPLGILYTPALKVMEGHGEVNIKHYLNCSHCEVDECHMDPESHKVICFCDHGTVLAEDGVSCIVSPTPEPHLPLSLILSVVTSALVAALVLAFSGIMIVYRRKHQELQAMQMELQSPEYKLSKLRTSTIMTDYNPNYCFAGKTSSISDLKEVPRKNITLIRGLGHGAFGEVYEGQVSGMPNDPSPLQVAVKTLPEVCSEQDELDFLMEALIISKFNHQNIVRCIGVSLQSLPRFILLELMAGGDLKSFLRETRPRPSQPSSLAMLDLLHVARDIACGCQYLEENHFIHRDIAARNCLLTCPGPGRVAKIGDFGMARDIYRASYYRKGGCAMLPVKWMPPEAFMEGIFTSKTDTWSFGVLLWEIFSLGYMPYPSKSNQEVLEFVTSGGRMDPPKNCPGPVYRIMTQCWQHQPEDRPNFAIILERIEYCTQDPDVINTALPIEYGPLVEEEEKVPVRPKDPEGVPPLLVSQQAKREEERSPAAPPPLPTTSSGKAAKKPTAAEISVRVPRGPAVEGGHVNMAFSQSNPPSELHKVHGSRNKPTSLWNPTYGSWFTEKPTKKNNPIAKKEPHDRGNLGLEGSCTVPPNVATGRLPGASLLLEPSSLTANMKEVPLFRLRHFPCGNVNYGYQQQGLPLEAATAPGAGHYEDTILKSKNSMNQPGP
T5 sequence (P16591 whole entry): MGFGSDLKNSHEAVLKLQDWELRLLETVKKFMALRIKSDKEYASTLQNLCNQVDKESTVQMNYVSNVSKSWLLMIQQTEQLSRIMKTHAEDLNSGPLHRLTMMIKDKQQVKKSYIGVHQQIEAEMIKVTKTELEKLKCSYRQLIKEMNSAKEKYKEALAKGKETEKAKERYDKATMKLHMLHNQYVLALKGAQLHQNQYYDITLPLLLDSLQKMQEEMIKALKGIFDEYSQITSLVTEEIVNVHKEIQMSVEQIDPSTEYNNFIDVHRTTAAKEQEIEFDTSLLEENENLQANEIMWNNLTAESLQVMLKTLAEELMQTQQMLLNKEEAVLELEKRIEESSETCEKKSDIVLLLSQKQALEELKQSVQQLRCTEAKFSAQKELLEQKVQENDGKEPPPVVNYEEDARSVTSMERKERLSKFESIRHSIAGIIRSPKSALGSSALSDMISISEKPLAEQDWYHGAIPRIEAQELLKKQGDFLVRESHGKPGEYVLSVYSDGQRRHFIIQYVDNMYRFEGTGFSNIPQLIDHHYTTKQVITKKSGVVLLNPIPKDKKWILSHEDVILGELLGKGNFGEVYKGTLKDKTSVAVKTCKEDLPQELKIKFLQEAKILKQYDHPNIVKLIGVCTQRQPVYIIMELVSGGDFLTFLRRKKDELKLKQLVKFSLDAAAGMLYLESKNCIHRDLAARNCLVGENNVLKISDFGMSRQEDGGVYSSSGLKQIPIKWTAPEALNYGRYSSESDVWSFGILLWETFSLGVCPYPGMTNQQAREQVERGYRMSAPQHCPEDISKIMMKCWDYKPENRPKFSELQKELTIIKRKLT
T14 sequence (Q13557 whole entry): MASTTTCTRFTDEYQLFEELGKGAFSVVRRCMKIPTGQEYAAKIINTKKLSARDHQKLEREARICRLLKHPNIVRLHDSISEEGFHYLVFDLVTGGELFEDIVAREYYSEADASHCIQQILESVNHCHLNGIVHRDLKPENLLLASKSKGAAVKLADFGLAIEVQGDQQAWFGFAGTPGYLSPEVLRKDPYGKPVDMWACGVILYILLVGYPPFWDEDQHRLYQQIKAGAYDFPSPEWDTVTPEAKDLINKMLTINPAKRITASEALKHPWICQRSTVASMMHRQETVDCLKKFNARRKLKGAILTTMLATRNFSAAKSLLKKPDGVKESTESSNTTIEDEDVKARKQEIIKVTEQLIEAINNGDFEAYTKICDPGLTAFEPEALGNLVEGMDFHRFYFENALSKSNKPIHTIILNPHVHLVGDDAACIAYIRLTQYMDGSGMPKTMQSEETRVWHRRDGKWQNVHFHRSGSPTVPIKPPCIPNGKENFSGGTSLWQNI
T2 sequence (O75676 whole entry): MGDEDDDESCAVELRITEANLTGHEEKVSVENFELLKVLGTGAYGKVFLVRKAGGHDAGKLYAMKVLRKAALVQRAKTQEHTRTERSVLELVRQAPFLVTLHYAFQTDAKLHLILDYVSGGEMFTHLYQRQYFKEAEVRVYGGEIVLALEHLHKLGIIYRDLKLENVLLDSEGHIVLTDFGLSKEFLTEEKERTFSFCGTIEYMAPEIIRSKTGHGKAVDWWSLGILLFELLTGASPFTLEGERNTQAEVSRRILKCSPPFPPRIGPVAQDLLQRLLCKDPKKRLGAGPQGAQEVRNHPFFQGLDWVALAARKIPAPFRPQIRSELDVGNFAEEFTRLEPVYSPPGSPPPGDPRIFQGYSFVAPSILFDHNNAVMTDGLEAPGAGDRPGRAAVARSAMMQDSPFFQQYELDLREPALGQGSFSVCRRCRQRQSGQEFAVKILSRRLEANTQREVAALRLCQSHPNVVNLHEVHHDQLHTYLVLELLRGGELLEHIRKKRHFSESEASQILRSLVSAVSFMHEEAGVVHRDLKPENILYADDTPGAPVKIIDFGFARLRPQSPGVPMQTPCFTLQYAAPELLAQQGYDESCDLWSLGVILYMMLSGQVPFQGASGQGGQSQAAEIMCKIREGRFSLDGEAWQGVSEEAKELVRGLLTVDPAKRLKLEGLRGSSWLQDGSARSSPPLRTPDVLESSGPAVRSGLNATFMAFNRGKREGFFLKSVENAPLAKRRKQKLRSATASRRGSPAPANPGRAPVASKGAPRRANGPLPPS
T12 sequence (P68400 whole entry): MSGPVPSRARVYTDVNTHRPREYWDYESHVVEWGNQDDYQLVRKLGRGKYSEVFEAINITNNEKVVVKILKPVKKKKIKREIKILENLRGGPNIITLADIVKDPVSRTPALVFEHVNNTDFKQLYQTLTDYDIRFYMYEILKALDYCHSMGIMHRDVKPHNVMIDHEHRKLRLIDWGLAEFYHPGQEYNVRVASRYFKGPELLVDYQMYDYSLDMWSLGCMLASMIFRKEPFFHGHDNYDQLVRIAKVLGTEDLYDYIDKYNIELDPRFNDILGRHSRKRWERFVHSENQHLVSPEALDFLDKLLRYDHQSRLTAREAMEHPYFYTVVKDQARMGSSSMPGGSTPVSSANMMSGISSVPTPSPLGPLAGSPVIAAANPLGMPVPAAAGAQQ
T3 sequence (O75716 whole entry): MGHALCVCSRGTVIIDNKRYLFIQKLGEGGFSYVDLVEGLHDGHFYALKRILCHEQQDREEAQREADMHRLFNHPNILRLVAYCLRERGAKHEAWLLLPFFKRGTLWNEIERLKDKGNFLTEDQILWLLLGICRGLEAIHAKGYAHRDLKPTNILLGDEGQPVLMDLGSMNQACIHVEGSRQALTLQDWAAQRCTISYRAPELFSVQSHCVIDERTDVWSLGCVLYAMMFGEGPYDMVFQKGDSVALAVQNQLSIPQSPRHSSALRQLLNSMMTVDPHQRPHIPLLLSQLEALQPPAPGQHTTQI

As to `COc1ncc(-c2ccc3nccc(-c4ccnnc4)c3c2)cc1NS(=O)(=O)c1ccc(F)cc1F` [Omipalisib], the remaining activity at 1 µM is 100% at panel of 442 kinases [1]; 100% on panel of 442 kinases [2] (setting [17]); 97% at panel of 442 kinases [2] (setting [18]); 42% on panel of 442 kinases [3]; 90% on panel of 442 kinases [4]; 100% on panel of 442 kinases [5]. Further, the remaining activity at 1 µM is 100% on panel of 442 kinases [6]; 100% on panel of 442 kinases [7]; 99% at panel of 442 kinases [8]; 94% at panel of 442 kinases [9]; 96% at panel of 442 kinases [10]; 100% at panel of 442 kinases [11]. Moreover, the remaining activity at 1 µM at panel of 442 kinases [12] was found to be 100%; at panel of 442 kinases [13], 95%; at panel of 442 kinases [14] it was 100%; on panel of 442 kinases [15] it was 76%; at panel of 442 kinases [16], 100%.
For `Cn1c(=O)n(-c2ccc(C(C)(C)C#N)cc2)c2c3cc(-c4cnc5ccccc5c4)ccc3ncc21` [Dactolisib, 2-methyl-2-[4-(3-methyl-2-oxo-8-quinolin-3-yl-2,3-dihydroimidazo[4,5-c]quinolin-1-yl)-phenyl] propionitrile], the remaining activity at 1 µM on panel of 442 kinases [1] worked out at 73%; on panel of 442 kinases [2] (setting [17]) it was 100%; at panel of 442 kinases [2] (setting [18]), 100%; at panel of 442 kinases [3] it was 100%; on panel of 442 kinases [4], 59%; on panel of 442 kinases [5], 60%. Further, the remaining activity at 1 µM was found to be 86% on panel of 442 kinases [6]; 97% at panel of 442 kinases [7]; 73% on panel of 442 kinases [8]; 97% on panel of 442 kinases [9]; 99% on panel of 442 kinases [11]; 64% at panel of 442 kinases [12]. Further, the remaining activity at 1 µM on panel of 442 kinases [13] came out at 60%; at panel of 442 kinases [14], 79%; on panel of 442 kinases [15] it was 100%; on panel of 442 kinases [16], 72%.
In the case of `Nc1cc(C(F)(F)F)c(-c2cc(N3CCOCC3)nc(N3CCOCC3)n2)cn1` [Buparlisib], the remaining activity at 1 µM was found to be 92% on panel of 442 kinases [1]; 83% on panel of 442 kinases [2] (setting [17]); 94% at panel of 442 kinases [2] (setting [18]); 100% at panel of 442 kinases [3]; 80% on panel of 442 kinases [4]; 100% at panel of 442 kinases [5]. The remaining activity at 1 µM on panel of 442 kinases [6] was determined as 100%; at panel of 442 kinases [7], 100%; on panel of 442 kinases [8] it was 100%; at panel of 442 kinases [9] it was 93%; on panel of 442 kinases [10], 100%; on panel of 442 kinases [11], 100%. For the same compound, the remaining activity at 1 µM at panel of 442 kinases [12] amounted to 91%; at panel of 442 kinases [13], 74%; on panel of 442 kinases [14], 100%; on panel of 442 kinases [15] it was 93%; at panel of 442 kinases [16], 100%. Also, the remaining activity at 10 µM at panel of 442 kinases [1] (setting [19]) was determined as 100%; at panel of 442 kinases [2] (kinase RPS6KA4(Kin.Dom.1-N-terminal), read-out: RPS6KA4(Kin.Dom.1-N-terminal) (% of control at 10 µM)), 100%; at panel of 442 kinases [2] (kinase RPS6KA4(Kin.Dom.2-C-terminal), read-out: RPS6KA4(Kin.Dom.2-C-terminal) (% of control at 10 µM)), 100%; on panel of 442 kinases [3] (10 µM, read-out: STK16 (% of control at 10 µM)), 92%; on panel of 442 kinases [4] (setting [19]), 24%; at panel of 442 kinases [5] (setting [19]) it was 100%. Further, the remaining activity at 10 µM on panel of 442 kinases [6] (setting [19]), at panel of 442 kinases [7] (setting [19]), on panel of 442 kinases [8] (setting [19]), on panel of 442 kinases [9] (setting [19]), at panel of 442 kinases [10] (setting [19]) and on panel of 442 kinases [11] (setting [19]) was 100% throughout. Further, the remaining activity at 10 µM came out at 100% on panel of 442 kinases [12] (setting [19]); 100% on panel of 442 kinases [13] (setting [19]); 100% at panel of 442 kinases [14] (setting [19]); 100% at panel of 442 kinases [15] (10 µM, read-out: STK39 (% of control at 10 µM)); 100% on panel of 442 kinases [16] (setting [19]).
For `FC(F)c1nc2ccccc2n1-c1nc(N2CCOCC2)nc(N2CCOCC2)n1` [ZSTK474, 2-(difluoromethyl)-1-[4,6-di(4-morpholinyl)-1,3,5-triazin-2-yl]-1H-benzimidazole], the remaining activity at 1 µM on panel of 442 kinases [1] was 88%; at panel of 442 kinases [2] (setting [17]) it was 100%; at panel of 442 kinases [2] (setting [18]) it was 100%; on panel of 442 kinases [3] it was 100%; on panel of 442 kinases [4] it was 100%; at panel of 442 kinases [5] it was 55%. Further, the remaining activity at 1 µM stood at 100% on panel of 442 kinases [6]; 100% on panel of 442 kinases [7]; 97% on panel of 442 kinases [8]; 100% at panel of 442 kinases [9]; 99% on panel of 442 kinases [10]; 95% at panel of 442 kinases [11]. For the same compound, the remaining activity at 1 µM came out at 90% on panel of 442 kinases [12]; 92% at panel of 442 kinases [13]; 88% on panel of 442 kinases [14]; 95% at panel of 442 kinases [15]; 93% on panel of 442 kinases [16].
